Test results published in patent publication US6911474B2, “Methods, compounds, and compositions for reducing body fat and modulating fatty acid metabolism” (The Regents of the University of California, priority 2001, dated 2005).
Ends that are not written are not given here.

How the values were obtained:
[1] = Acute food intake in 24-h food-deprived rats after i.p. administration; format: in vivo, rat; settings: 24-h food-deprived rats, 15 min before food presentation, FIG. 4a,b
Experimental: Feeding experiments. Acute experiments. Food intake was measured in 24-h food-deprived rats (Navarro et al., J. Neurochem., 67:1982-1991 (1996)), administering drugs 15 min before food presentation. Subchronic experiments. Ad libitum fed rats received vehicle injections for three days. On day four, the animals were divided in two equal groups and gave them daily injections of vehicle or OEA (5 mg per kg at 1900 h) for 7 consecutive days, while measuring body weight, food intake and water intake.
The effects of systemically administered OEA on food intake in rats can be assessed using a 24 h fast. […] To define the selectivity of this response, various OEA analogs were evaluated for their ability to produce hypophagia.

Soleus muscle = assay: [14C]oleate oxidation to CO2 in soleus muscle; format: cell-based, rat; settings: soleus muscle, structure-activity relationship; FIG. 8
[2] = Food intake in capsaicin-treated rats (sensory fibers destroyed); format: in vivo, rat; settings: OEA 10 mg per kg, i.p., FIG. 6a,c
Excerpt: Chemicals. FAEs and [^2H4] FAEs were synthesized in the laboratory (Giuffrida et al., “Lipid Second Messengers” (ed. Laychock, S. G. & Rubin, R. P.) 113-133 (CRC Press LLC, Boca Raton, Fla., 1998)); 1,2-dioleyl-sn-glycero-phosphoethanolamine-N-oleyl was purchased from Avanti Polar Lipids (Alabaster, Ala.); SR141716A was provided by RBI (Natick, Mass.) as part of the Chemical Synthesis Program of the NIMH (N01MH30003); SR144528 was a generous gift of Sanofi Recherche; all other drugs were from Tocris (Ballwin, Mo.) or Sigma (Saint Louis, Mo.). FAE were dissolved in dimethylsulphoxide (DMSO) and administered in 70% DMSO in sterile saline (acute treatments) or 5% Tween 80/5% propylenglycol in sterile saline (subchronic treatments) (1 ml per kg, i.p.). Capsaicin was administered in 10% Tween 80/10% ethanol/80% saline; SR141716A, SR144528, CCK-8 and CP-93129 in 5% Tween 80/5% propylenglycol/90% saline (1 ml per kg, i.p.).
These findings support the hypothesis that OEA causes hypophagia by acting at a peripheral site, and that sensory fibers are required for this effect.

[3] = Conditioned taste aversion; format: in vivo, rat; settings: OEA 20 mg per kg, i.p.; lithium chloride 0.4 M, 7.5 ml per kg; FIG. 4c
Experimental: Conditioned taste aversion. Rats were water-deprived for 24 h and then accustomed to drink from a graded bottle during a 30-min test period for four days. On day five, water was substituted with a 0.1% saccharin solution and, 30 min later, the animals received injections of vehicle, OEA (20 mg per kg) or lithium chloride (0.4 M, 7.5 ml per kg). During the following two days, water consumption was recorded over 30-min test periods. The animals were then presented with water or saccharin, and drinking measured.

Row | Molecule | suppression of food intake (hypophagia) [1] | mimicking of the effect of OEA on skeletal muscle fatty acid oxidation (Soleus muscle) | food intake response of capsaicin-treated rats [2] | conditioned taste aversion [3]
1 | CCCCCCCC/C=C\CCCCCCCC(=O)O [oleic acid, reference compound] | no effect | not |  | 
2 | CCCCCCCCCCCCCCCC(=O)NCCO [Palmitylethanolamide, palmitylethanolamide] | active but significantly less potent than OEA | only partially |  | 
3 | O=c1ccc2[nH]cc(C3=CCNCC3)c2[nH]1 [CP-93129] |  |  | responded normally | 
4 | [Cl-].[Li+] [lithium chloride] |  |  |  | readily provoked
5 | CCCCC/C=C\C/C=C\C/C=C\C/C=C\CCCC(=O)NCCO [Anandamide, arachidonylethanolamide, reference compound] | no effect | not |  | 
6 | cholecystokinin-8 (DYMGWMDF; ends and bridges not checked; UniProt P06307 96-103, looked up) [CCK-8, peripherally administered cholecystokinin-8] |  |  | failed to respond | 
